Reference: patent publication US20150337013A1, “NOVEL ANTIBACTERIAL AGENTS FOR THE TREATMENT OF GRAM POSITIVE INFECTIONS” (priority 2008, published 2015)
Several values for one entry are separate records, joined by “and”; a condition that tells them apart may be missing. Equal values may be shown once.

Assays:
[1] = test system: Enterococcus faecalis EFS.201 (ATCC 49452); type: cell-based; conditions: ATCC 49452
Method in brief: (§1)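 Broth microdilution per CLSI M7-A7 in Mueller Hinton broth supplemented with 50 mg/L calcium, 5×10^5 bacteria per well, 2-fold compound dilutions, DMSO ≤1%. Plates incubated 18-20 hours at 37° C with aeration (200 rpm); MIC (μg/mL) is the lowest concentration giving no visible turbidity.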

[2] = test system: Enterococcus faecium EFM.384, Daptomycin resistant mutant (14-A); type: cell-based; conditions: MHBc with 50 mg/L calcium, 18-20 hours at 37° C.
Method in brief: as §1

[3] = test system: Staphylococcus aureus SAU.399 (ATCC 43300), Methicillin and Oxacillin Resistant; type: cell-based; conditions: MHBc with 50 mg/L calcium, 18-20 hours at 37° C.
Method in brief: as §1

[4] = test system: Staphylococcus aureus SAU.42 (ATCC 29213); type: cell-based; conditions: ATCC 29213
Method in brief: as §1

[5] = test system: C. difficile spores (ATCC #43596); assay: Hamster C. difficile infection (CDAD) protection model; type: in vivo, Syrian golden hamsters; conditions: oral 0.5 mg/kg once daily for 5 days (MET 70 mg/kg three times daily for 5 days)
Procedure: Syrian golden hamsters were pretreated with 10 mg/kg clindamycin subcutaneously 24 hours before bacterial challenge. An inoculum of 20 C. difficile spores (ATCC #43596) in sterile saline was administered orally. Treatment was initiated 4 hours post-inoculation with dH2O, metronidazole (MET), vancomycin (VAN), or a compound of the present invention. Oral dosing regimens for VAN and compounds of Formula I were 0.5 mg/kg once daily for 5 days. MET was administered at 70 mg/kg three times daily for 5 days. CDAD was confirmed as the cause of death by observations at necropsy, including wet tail and/or macroscopic cecal alterations. The % protection provided by each therapy tested was calculated at 1 and 21 days post-dosing.

gram positive bacteria = assay: Antimicrobial activity against a panel of organisms, summary statements; type: cell-based; conditions: statement in words
Procedure: (§2) Compounds according to Formula I were tested for antimicrobial activity against a panel of organisms. Aerobic organisms, Staphylococcus aureus, Enterococcus faecalis and E. faecium, were tested by broth microdilution according to Clinical and Laboratory Standards Institute (CLSI) document M7-A7 (Clinical and Laboratory Standards Institute. Methods for Dilution Antimicrobial Susceptibility Tests for Bacteria that Grow Aerobically; Approved Standard—Seventh Edition. CLSI document M7-A7 [ISBN 1-56238-587-9]. Clinical and Laboratory Standards Institute, 940 West Valley Road, Suite 1400, Wayne, Pa. 19087-1898 USA, 2006) with modifications as described below. Mueller Hinton Broth (MHBc) was supplemented with 50 mg/L calcium (equivalent to human physiological levels of calcium) and assay plates were incubated 18-20 hours at 37° C. with aeration (200 rpm).
(§3) In all cases the final concentration of dimethyl sulfoxide incubated with cells is less than or equal to 1%. For minimum inhibitory concentration (MIC) calculations, 2-fold dilutions of compounds were added to wells of a microtiter plate containing 5×10^5 bacteria in a final volume of 100 μL of media. Following incubation, (18-20 hours at 37° C. with aeration at 200 rpm) growth was confirmed visually by placing plates over a viewing apparatus (stand with a mirror underneath) and then the optical density (OD600) was measured using a SpectraMax 340PC^384 plate reader. Growth was defined as turbidity that could be detected with the naked eye or achieving minimum OD600of 0.1. MIC values (in μg/mL) were defined as the lowest concentration producing no visible turbidity.

[6] = test system: daptomycin resistant Staph. aureus (DRSA), daptomycin resistant E. faecium (DREfm) and daptomycin resistance E. faecalis (DREfs); assay: Activity against daptomycin resistant bacteria, summary statement; type: cell-based; conditions: statement in words
Procedure: as §2, §3

[7] = test system: Enterococcus faecalis EFS.312, Daptomycin resistant mutant (EFA); type: cell-based; conditions: MHBc with 50 mg/L calcium, 18-20 hours at 37° C.
Method in brief: as §1

[8] = test system: Staphylococcus aureus SAU.278, Daptomycin resistant mutant (D10); type: cell-based; conditions: MHBc with 50 mg/L calcium, 18-20 hours at 37° C.
Method in brief: as §1

[9] = test system: NAP1 Clostridium difficile strain

| SMILES | Efs201 MIC [1] [mg/L] | Efm384 MIC [2] | Sa399 MIC [3] [mg/L] | Sa42 MIC [4] [mg/L] | Mean % Protection 1 Day Post Dosing [5] [%] | Mean % Protection 21 Days Post Dosing [5] [%] | as active or more active than daptomycin (gram positive bacteria) | more active against bacteria than daptomycin (gram positive bacteria) | useful against daptomycin resistant strains of bacteria [6] | Efs312 MIC [7] | C. diff MIC90 (Clostridium difficile) [mg/L] | Sa278 MIC [8] [mg/L] | C. diff MIC50 Nap-1 [9] [mg/L] | C. diff MIC90 Nap-1 [9] [mg/L] |
| --- | --- | --- | --- | --- | --- | --- | --- | --- | --- | --- | --- | --- | --- | --- |
| CCCCCCCc1ccc(C(=O)N[C@@H](Cc2c[nH]c3ccccc23)C(=O)N[C@H](CC(N)=O)C(=O)N[C@@H](CC(=O)O)C(=O)N[C@@H]2C(=O)NCC(=O)N[C@@H](CCCN)C(=O)N[C@@H](CC(=O)O)C(=O)N[C@H](C)C(=O)N[C@@H](CC(=O)O)C(=O)NCC(=O)N[C@H](CO)C(=O)N[C@@H]([C@H](C)CC(=O)O)C(=O)N[C@@H](CC(=O)c3ccccc3N)C(=O)O[C@@H]2C)cc1 [Compound 33, N-(4-heptylbenzoyl)-L-tryptophyl-D-asparaginyl-L-α-aspartyl-L-threonylglycyl-L-ornithyl-L-α-aspartyl-D-alanyl-L-α-aspartylglycyl-D-seryl-(3R)-3-methyl-L-α-glutamyl-(αS)-α,2-diamino-γ-oxobenzenebutanoic acid (13→4)-lactone] | 0.5 | 4 mg/L and 2 mg/L | 0.125 | 0.25 | 85 | 69 | as active or more active than daptomycin | more effective than daptomycin | useful against daptomycin resistant strains of bacteria | – | – | – | – | – |
| CCCCCCCCc1ccc(C(=O)N[C@@H](Cc2c[nH]c3ccccc23)C(=O)N[C@H](CC(N)=O)C(=O)N[C@@H](CC(=O)O)C(=O)N[C@@H]2C(=O)NCC(=O)N[C@@H](CCCN)C(=O)N[C@@H](CC(=O)O)C(=O)N[C@H](C)C(=O)N[C@@H](CC(=O)O)C(=O)NCC(=O)N[C@H](CO)C(=O)N[C@@H]([C@H](C)CC(=O)O)C(=O)N[C@@H](CC(=O)c3ccccc3N)C(=O)O[C@@H]2C)cc1 [Compound 34, N-(4-octylbenzoyl)-L-tryptophyl-D-asparaginyl-L-α-aspartyl-L-threonylglycyl-L-ornithyl-L-α-aspartyl-D-alanyl-L-α-aspartylglycyl-D-seryl-(3R)-3-methyl-L-α-glutamyl-(αS)-α,2-diamino-γ-oxobenzenebutanoic acid (13→4)-lactone] | – | 2 mg/L and 4 mg/L | – | – | 85 | 38 | as active or more active than daptomycin | more effective than daptomycin | useful against daptomycin resistant strains of bacteria | 4 mg/L and 8 mg/L | 1 | – | – | – |
| CCCCCc1ccc(/C(C)=C/C(=O)N[C@@H](Cc2c[nH]c3ccccc23)C(=O)N[C@H](CC(N)=O)C(=O)N[C@@H](CC(=O)O)C(=O)N[C@@H]2C(=O)NCC(=O)N[C@@H](CCCN)C(=O)N[C@@H](CC(=O)O)C(=O)N[C@H](C)C(=O)N[C@@H](CC(=O)O)C(=O)NCC(=O)N[C@H](CO)C(=O)N[C@@H]([C@H](C)CC(=O)O)C(=O)N[C@@H](CC(=O)c3ccccc3N)C(=O)O[C@@H]2C)cc1 [Compound 49, N-{1-[(E)-3-(4-pentylphenyl)but-2-enoyl]}-L-tryptophyl-D-asparaginyl-L-α-aspartyl-L-threonylglycyl-L-ornithyl-L-α-aspartyl-D-alanyl-L-α-aspartylglycyl-D-seryl-(3R)-3-methyl-L-α-glutamyl-(αS)-α,2-diamino-γ-oxobenzenebutanoic acid (13→4)-lactone] | – | 4 mg/L | – | – | – | – | – | – | – | 8 mg/L and 4 mg/L | – | 1 | 0.25 | 0.50 |
